From the supplement of paper PMC10307832

How the values were obtained:
Assay in all cases: relative viability (nuclei count vs DMSO), 5 days (fraction); higher = more cells survive
Mirin + AZD7762 = compound: N=C1NC(=O)/C(=C/c2ccc(O)cc2)S1 [Mirin] + NC(=O)Nc1cc(-c2cccc(F)c2)sc1C(=O)N[C@H]1CCCNC1 [AZD7762] (partner 0.2 µM)
Procedure, shortened: (§1)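 Lung cancer cell lines, seeded in 1536-well plates, were treated the following day by pin tool with a single drug or with five library-drug doses (not always all listed) in √10 steps on top of a fixed anchor-drug dose. Cells were fixed and nuclei stained in one step after 5 days, and nuclei were counted. Relative viability is the nuclei count for treated wells divided by that for vehicle wells, reported as medians of duplicate plates.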

Mirin + Navitoclax = compound: N=C1NC(=O)/C(=C/c2ccc(O)cc2)S1 [Mirin] + CC1(C)CCC(c2ccc(Cl)cc2)=C(CN2CCN(c3ccc(C(=O)NS(=O)(=O)c4ccc(N[C@H](CCN5CCOCC5)CSc5ccccc5)c(S(=O)(=O)C(F)(F)F)c4)cc3)CC2)C1 [Navitoclax] (partner 0.5 µM)
Procedure, shortened: as §1

[1] = compound: CCn1c(-c2nonc2N)nc2cnc(Oc3cccc(NC(=O)c4ccc(OCCN5CCOCC5)cc4)c3)cc21 + Cc1cc(Nc2cc(N3CCN(C)CC3)nc(Sc3ccc(NC(=O)C4CC4)cc3)n2)n[nH]1 [Tozasertib] (partner 0.1 µM)
Procedure, shortened: as §1

[2] = compound: CCC1=CN=CN=C1N2CCN(CC2)CC3=NC4=C(N3)C=C(C=C4)C(F)(F)F + CC(=O)c1c(C)c2cnc(Nc3ccc(N4CCNCC4)cn3)nc2n(C2CCCC2)c1=O [Palbociclib] (partner 0.5 µM)
Procedure, shortened: as §1

Cell Line | relative viability (Mirin + AZD7762; first compound 0.25 µM) | relative viability (Mirin + AZD7762; first compound 0.7906 µM) | relative viability (Mirin + AZD7762; first compound 2.5 µM) | relative viability (Mirin + AZD7762; first compound 7.906 µM) | relative viability (Mirin + AZD7762; first compound 25 µM) | relative viability (Mirin + Navitoclax; first compound 0.25 µM) | relative viability (Mirin + Navitoclax; first compound 0.7906 µM) | relative viability (Mirin + Navitoclax; first compound 2.5 µM) | relative viability (Mirin + Navitoclax; first compound 7.906 µM) | relative viability (Mirin + Navitoclax; first compound 25 µM) | relative viability ([1]; first compound 0.04 µM) | relative viability ([1]; first compound 0.1265 µM) | relative viability ([1]; first compound 0.4 µM) | relative viability ([1]; first compound 1.265 µM) | relative viability ([1]; first compound 4 µM) | relative viability ([2]; first compound 0.04 µM) | relative viability ([2]; first compound 0.1265 µM) | relative viability ([2]; first compound 0.4 µM) | relative viability ([2]; first compound 1.265 µM) | relative viability ([2]; first compound 4 µM)
HCC-366 | 0.313 | 0.541 | 0.28 | 0.262 | 0.364 | 1.1 | 1.02 | 1.06 | 1.1 | 0.958 | 0.134 | 0.105 | 0.0696 | 0.0938 | 0.0791 | 0.319 | 0.328 | 0.321 | 0.34 | 0.383
HCC-827 | 0.209 | 0.184 | 0.242 | 0.157 | 0.225 | 1.01 | 1 | 1 | 1.07 | 1.27 | 0.453 | 0.434 | 0.387 | 0.383 | 0.346 | 0.497 | 0.53 | 0.498 | 0.431 | 0.468
IA-LM | – | – | – | – | – | 0.835 | 0.899 | 0.705 | 0.498 | 0.752 | – | – | – | – | – | – | – | – | – | –
LCLC-103H | 0.875 | 0.779 | 0.784 | 0.844 | 0.803 | – | – | – | – | – | 0.508 | 0.463 | 0.534 | 0.465 | 0.419 | 0.501 | 0.471 | 0.436 | 0.485 | 0.448
NCI-H358 | 0.584 | 0.569 | 0.528 | 0.442 | 0.369 | – | – | – | – | – | 0.0993 | 0.102 | 0.116 | 0.0599 | 0.0812 | 0.135 | 0.136 | 0.121 | 0.128 | 0.141
NCI-H520 | – | – | – | – | – | 1.03 | 1.11 | 1.35 | 0.829 | 0.676 | 0.419 | 0.368 | 0.359 | 0.345 | 0.378 | 0.255 | 0.233 | 0.194 | 0.174 | 0.2
NCI-H522 | 0.813 | 0.805 | 0.83 | 0.861 | 0.595 | – | – | – | – | – | 0.474 | 0.478 | 0.544 | 0.509 | 0.482 | 1.02 | 1.11 | 0.956 | 0.818 | 0.916
NCI-H596 | 1 | 1.02 | 1.09 | 1.05 | 1.11 | 0.966 | 0.855 | 0.96 | 1.15 | 0.962 | 1.24 | 0.945 | 0.828 | 0.743 | 1.01 | – | – | – | – | –
NCI-H650 | 1.1 | 1.03 | 0.968 | 0.992 | 0.974 | – | – | – | – | – | 1.01 | 0.639 | 0.41 | 0.283 | 0.271 | 0.318 | 0.344 | 0.292 | 0.276 | 0.313
NCI-H661 | – | – | – | – | – | – | – | – | – | – | 0.377 | 0.367 | 0.37 | 0.372 | 0.266 | 0.378 | 0.398 | 0.416 | 0.386 | 0.38
NCI-H1299 | – | – | – | – | – | 0.998 | 1.1 | 1.09 | 1.03 | 1.2 | – | – | – | – | – | – | – | – | – | –
NCI-H1623 | – | – | – | – | – | – | – | – | – | – | 0.473 | 0.396 | 0.369 | 0.346 | 0.457 | – | – | – | – | –
NCI-H1648 | 0.722 | – | 0.652 | 0.641 | 0.576 | – | – | – | – | – | 0.415 | 0.833 | 0.88 | 0.713 | 0.547 | 0.235 | – | – | 0.296 | 0.303
NCI-H1650 | – | – | – | – | – | 1.05 | 1.53 | 1.21 | 1.21 | 1.06 | 0.469 | 0.394 | 0.386 | 0.223 | 0.25 | 0.325 | 0.311 | 0.348 | 0.223 | 0.39
NCI-H1703 | 0.115 | 0.148 | 0.146 | – | 0.117 | 1.27 | 1.21 | 1.26 | – | 0.685 | – | – | – | – | – | – | – | – | – | –
NCI-H1792 | 0.729 | 0.803 | 0.826 | 0.636 | 0.77 | 0.611 | 0.529 | 0.68 | 0.583 | 0.695 | – | – | – | – | – | 0.68 | 0.616 | 0.687 | 0.542 | 0.611
NCI-H2009 | – | – | – | – | – | 1.17 | 1.3 | 1.18 | 1.11 | 1.2 | 0.745 | 0.635 | 0.53 | 0.331 | 0.275 | 0.195 | 0.238 | 0.184 | 0.15 | 0.0584
NCI-H2023 | – | – | – | – | – | 0.991 | 0.963 | 1.01 | 0.995 | 0.972 | 0.363 | 0.334 | 0.277 | 0.16 | 0.136 | 0.422 | 0.347 | 0.358 | 0.376 | 0.345
NCI-H2228 | – | – | – | – | – | 1.2 | 0.972 | 1.35 | 1.18 | 1.03 | 0.297 | 0.28 | 0.247 | 0.208 | 0.166 | – | 0.595 | 0.684 | 0.472 | 0.877
NCI-H2342 | 0.581 | 0.451 | 0.487 | – | 0.459 | – | – | – | – | – | 0.599 | 0.561 | 0.463 | 0.437 | 0.425 | 0.569 | 0.514 | 0.511 | 0.463 | 0.477
SK-LU-1 | – | – | – | – | – | 1.05 | 0.909 | 0.793 | 0.772 | 0.498 | 0.402 | 0.371 | 0.29 | 0.238 | 0.218 | 0.412 | 0.394 | 0.41 | 0.26 | 0.418
SK-MES-1 | – | – | – | – | – | 1.2 | 1.34 | 1.23 | 1.19 | 1.4 | 0.811 | 0.657 | 0.518 | 0.228 | 0.21 | 0.322 | 0.327 | 0.278 | 0.32 | 0.318
SW 900 | 0.67 | 0.669 | 0.669 | 0.518 | 0.641 | – | – | – | – | – | 0.625 | 0.706 | 0.637 | 0.488 | 0.431 | 0.463 | 0.497 | 0.412 | – | 0.556
SW 1573 | – | – | – | – | – | 0.989 | 0.98 | 0.825 | 0.88 | 0.608 | 0.255 | 0.149 | 0.12 | 0.145 | 0.0839 | 0.345 | 0.406 | 0.384 | 0.262 | 0.32
